Patent US8946173B2, “Cancer cell death inducing agent having effects of potentiating anticancer drug against anticancer-drug-resistant cancer” (Momotaro-Gene Inc., priority 2007, dated 2015)

System: MCF7/ADR cells
Assay: Cell survival rate assay with doxorubicin
Type: cell-based, human
Details: no treatment group (no vector)
Description: Cells were seeded in a 96-well flat bottom microplate at 1000 cells per well. After 24 hours of incubation, cells were treated with Ad-LacZ and Ad-REIC at 100 MOI in serum free medium for 2 hours, followed by exchange with fresh complete medium. After 48 hours, floating dead cells were removed by medium exchange. Adhering cells were cultured with doxorubicin at various concentrations for 72 hours. At the end of incubation, cell survival rates were measured using CellTiter96 (trademark) Aqueous One Solution Cell Proliferation Assay (Promega Corp.).

In the case of `COc1cccc2c1C(=O)c1c(O)c3c(c(O)c1C2=O)C[C@@](O)(C(=O)CO)C[C@@H]3O[C@H]1C[C@H](N)[C@H](O)[C@H](C)O1` [doxorubicin], the cell survival % (10 μM doxorubicin) was 88.1% and the cell survival rates (25 μM doxorubicin) was 45.9%.
